Experiment [1] relates to Meiothermus silvanus biofilms. The experiment can be described thus: Biofilm test on 96-microwell peg lids in synthetic paper machine water, Crystal Violet quantification. It counts as cell-based. Conditions: SPW; for Impact (biofilm reduction percentage): 45° C., 150 rpm. The source says:
(§1) Pure cultures of Meiothermus silvanus, a microbe species commonly found in paper machine biofilms (Ekman J, Journal of Industrial Microbiology & Biotechnology 34:203-211) and Pseudoxanthomonas taiwanensis, another species commonly found in paper machine environments (Desjardins, E & Beaulieu, C, Journal of Industrial Microbiology & Biotechnology 30:141-145) were used to study the efficacy of various chemicals to prevent biofilm formation.
(§2) Biofilm tests were done in fibre-containing synthetic paper machine water, SPW (prepared according to Peltola, et al., J. Ind. Microbiol. Biotechnol. 38: 1719-1727) using 96-microwell plate wells with peg lids (Thermo Fischer Scientific Inc., USA). Plates were incubated at 45° C. with a rotary shaking (150 rpm) providing high flow in each well.
(§3) Wells of 96-microwell plates with peg-lids were filled with SPW and inoculated with the pure bacterial cultures. Biofilm was grown at 45° C. with a rotary shaking (150 rpm) for 24 hours without addition of any chemical compound to be tested.
(§4) After 24 hours from starting the test, the wells were emptied and a fresh solution of SPW, inoculated with the pure bacterial cultures and with different amounts of chemical compounds to be tested were added and the original peg-lid was placed back in place. After an additional 24 hours the wells were emptied and the biofilm amount on the pegs was quantified.
(§5) The amount of biofilm formed on the peg surfaces was quantified with a staining solution by adding 200 μl of 1% Crystal Violet (Merck Millipore KGaA, Germany) in methanol to each well in a clean 96-well plate and placing the biofilm-containing peg-lid on it. After 3 minutes the wells were emptied and the wells and pegs were rinsed 3 times with tap water. Finally the peg-lid was placed in a clean 96-well plate, the attached Crystal Violet was dissolved into ethanol and the absorbance at 595 nm was measured.
(§6) All parts per million (ppm) amounts given in Examples 1-2 are as active ingredients. The Impact values are calculated as biofilm reduction percentages based on a comparison with no added chemicals. A positive value indicates a reduction in amount of biofilm whereas a negative value indicates an increase in the amount of biofilm.

In experiment [2] the test system is Pseudoxanthomonas taiwanensis biofilms. Described as above. It is filed as cell-based. Conditions: SPW; for Impact (biofilm reduction percentage): 45° C., 150 rpm.
Source text: as §1, §2, §3, §4, §5, §6

Where [3] appears, read: Sodium hypochlorite 4 ppm alone.
The mark [4] stands for this setting: Sodium hypochlorite 8 ppm alone.
The mark [5] stands for this setting: on its own, up to a dosage of 8 or 16 ppm.

SMILES strings stand for the structures.

As for `Cc1ccc(S(=O)(=O)C=CC#N)cc1` [Compound A, 3-[(4-methylphenyl)sulphonyl]-2-propenenitrile], the “Impact (biofilm reduction percentage)” value in experiment [1] (Compound A 0.15 ppm alone, Table 1) is reported as 7%; in experiment [1] (Compound A 0.3 ppm alone, Table 1), −7%; in experiment [1] (Compound A 0.3 ppm alone, Table 3) it was −15%; in experiment [1] (Compound A 0.45 ppm alone, Table 3) it was 11%; in experiment [2] (Compound A 0.15 ppm alone, Table 2), 5%; in experiment [2] (Compound A 0.15 ppm alone, Table 4) it was 19%. The “Impact (biofilm reduction percentage)” value in experiment [2] (Compound A 0.3 ppm alone, Table 2) was found to be 7%. Moreover, the “biofilm reduction efficacy (in words)” value in experiment [1] (at low dosages) and in experiment [2] (at low dosages) was “ineffective” each time.
On to `NCl` [MCA, Monochloramine], for which the “Impact (biofilm reduction percentage)” value in experiment [1] (MCA 0.5 ppm alone) was −22%; in experiment [1] (MCA 1 ppm alone), 4%; in experiment [1] (MCA 1.5 ppm alone), −2%; in experiment [2] (MCA 0.5 ppm alone), −11%; in experiment [2] (MCA 1 ppm alone) it was −3%; in experiment [2] (MCA 1.5 ppm alone), 7%. For the same compound, the “biofilm reduction efficacy (in words)” value in experiment [1] (at low dosages) and in experiment [2] (at low dosages) was “ineffective” each time.
Regarding `OCl` [Sodium hypochlorite, reference compound], the “Impact (biofilm reduction percentage)” value in experiment [1] (Sodium hypochlorite 2 ppm alone) is on record as −71%; in experiment [1] (setting [3]), 1%; in experiment [1] (setting [4]) it was 5%; in experiment [2] (setting [3]) it was −3%; in experiment [2] (setting [4]) it was −5%; in experiment [2] (Sodium hypochlorite 16 ppm alone), 0%. Also, the “biofilm reduction efficacy (in words)” value in experiment [1] (setting [5]) and in experiment [2] (setting [5]) was “ineffective” each time.

Source of the values: patent US20240383784A1, “ANTIMICROBIAL SYSTEM AND METHOD” (KEMIRA OYJ, priority 2021, published 2024).
